From patent US9283160B2, “Stabilization of cosmetic compositions” (BASF SE, priority 2009, dated 2016)

Assay: Photodegradation of UV absorber combinations, plate-test (recovery after UV irradiation)
Type: physicochemical
Details: 0-50 MED UV; for Photostabilization of components (e) and (f) after irradiation (summary of Table 5): in presence of piperazine bi-aminobenzophenone
Procedure: For the determination of photodegradation the so-called “plate-test” is employed: • 2 μl/cm^2 of the formulations are spread on quartz plates (sand-blasted surface of 2.8 cm^2), and rinsed off the plates after 0, 5, 10, 20, and 50 MED of UV irradiation using an Atlas CPS+ solar simulator.
The substances tagged with an asterix (*) are those the recovery percentages refer to. The percentage of component (a) refers to the active.
The experimental error in terms of the standard deviation is in the range of ±3%.

Row | SMILES | Photostabilization of components (e) and (f) after irradiation (summary of Table 5) | Photostabilization of component (b) after irradiation (summary of Table 4) (combination with piperazine bi-aminobenzophenone, bis-ethylhexyloxyphenol methoxyphenyl triazine added) | Photostabilization of component (b) after irradiation (summary of Table 3) (combination with piperazine bi-aminobenzophenone, octocrylene added)
1 | CCCCC(CC)COC(=O)c1ccc(Nc2nc(Nc3ccc(C(=O)NC(C)(C)C)cc3)nc(Nc3ccc(C(=O)OCC(CC)CCCC)cc3)n2)cc1 (stereo not shown) [di-octyl butamido triazone, Benzoic acid, 4,4′-[[6-[[4-[[(1,1-dimethylethyl)amino]carbonyl]-phenyl]amino]1,3,5-triazine-2,4-diyl]diimino]bis-, bis(2-ethyl-hexyl)ester] | photostabilized in the presence of piperazine bi-aminobenzophenone |  | 
2 | CCCCC(CC)COC(=O)C=Cc1ccc(OC)cc1 (stereo not shown) [ethylhexyl methoxycinnamate, 2-ethylhexyl 4-methoxycinnamate] |  | can be stabilized by addition of bis-ethylhexyloxyphenol methoxyphenyl triazine | can be stabilized by addition of octocrylene
3 | CCCCC(CC)COC(=O)c1ccc(Nc2nc(Nc3ccc(C(=O)OCC(CC)CCCC)cc3)nc(Nc3ccc(C(=O)OCC(CC)CCCC)cc3)n2)cc1 (stereo not shown) [ethylhexyl triazone, Ethylhexyl triazone] | photostabilized in the presence of piperazine bi-aminobenzophenone |  | 
